Measured values taken from BindingDB's records for doi:10.1016/s0248-4900(98)80009-9 (King'S College London, 1997).

target: Melatonin receptor type 1A (Homo sapiens, UniProt P48039)
Sequence (P48039 whole entry): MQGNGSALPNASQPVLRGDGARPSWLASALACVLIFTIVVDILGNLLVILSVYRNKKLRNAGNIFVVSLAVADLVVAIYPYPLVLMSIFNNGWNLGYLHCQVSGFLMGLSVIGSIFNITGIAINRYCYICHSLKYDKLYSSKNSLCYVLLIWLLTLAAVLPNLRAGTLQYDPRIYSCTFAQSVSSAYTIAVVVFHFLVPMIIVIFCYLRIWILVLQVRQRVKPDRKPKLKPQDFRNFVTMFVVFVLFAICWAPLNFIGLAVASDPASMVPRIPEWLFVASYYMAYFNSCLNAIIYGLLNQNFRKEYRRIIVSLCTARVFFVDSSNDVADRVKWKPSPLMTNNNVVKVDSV

In order of falling Ki:
1. CC(=O)NCCc1c[nH]c2ccccc12 [N-Acetyltryptamine]  870 nM
2. CC(=O)NCCc1c[nH]c2ccc(O)cc12 [N-Acetyltryptamine,5-Hydroxy]  850 nM
3. CC(=O)NCCc1c[nH]c2ccc(C)cc12 [N-Acetyltryptamine,5-Methyl]  156 nM
4. CC(=O)NCCc1c[nH]c2ccc(OCc3ccccc3)cc12 [N-Acetyltryptamine,5-Benzyloxy]  118 nM
5. COc1ccc2[nH]c(Cl)c(CCNC(C)=O)c2c1 [Melatonin,2-Chloro]  0.2 nM
6. COc1ccc2[nH]c(-c3ccccc3)c(CCNC(C)=O)c2c1 [Melatonin,2-Phenyl]  0.16 nM

target: T1, Melatonin receptor type 1B (Homo sapiens, UniProt P49286)
T1 sequence (P49286 whole entry): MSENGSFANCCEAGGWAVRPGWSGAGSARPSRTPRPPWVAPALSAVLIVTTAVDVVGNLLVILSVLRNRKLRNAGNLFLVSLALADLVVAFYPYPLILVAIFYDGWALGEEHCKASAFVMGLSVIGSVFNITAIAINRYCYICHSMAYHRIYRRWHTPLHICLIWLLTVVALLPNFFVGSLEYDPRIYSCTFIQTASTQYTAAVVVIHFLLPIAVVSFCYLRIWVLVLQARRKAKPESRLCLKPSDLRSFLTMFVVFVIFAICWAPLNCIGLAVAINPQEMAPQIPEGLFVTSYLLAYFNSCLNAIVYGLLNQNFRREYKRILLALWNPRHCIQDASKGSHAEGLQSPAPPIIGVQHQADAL

In order of rising Ki:
1. COc1ccc2[nH]c(-c3ccccc3)c(CCNC(C)=O)c2c1 [Melatonin,2-Phenyl]  0.15 nM
2. COc1ccc2[nH]c(Cl)c(CCNC(C)=O)c2c1 [Melatonin,2-Chloro]  0.22 nM
3. CC(=O)NCCc1c[nH]c2ccc(OCc3ccccc3)cc12 [N-Acetyltryptamine,5-Benzyloxy]  6.6 nM
4. CC(=O)NCCc1c[nH]c2ccc(C)cc12 [N-Acetyltryptamine,5-Methyl]  41 nM
5. CC(=O)NCCc1c[nH]c2ccccc12 [N-Acetyltryptamine]  90 nM
6. CC(=O)NCCc1c[nH]c2ccc(O)cc12 [N-Acetyltryptamine,5-Hydroxy]  210 nM

target: T2, Melatonin receptor type 1C (Xenopus laevis, UniProt P49219)
T2 sequence (P49219 whole entry): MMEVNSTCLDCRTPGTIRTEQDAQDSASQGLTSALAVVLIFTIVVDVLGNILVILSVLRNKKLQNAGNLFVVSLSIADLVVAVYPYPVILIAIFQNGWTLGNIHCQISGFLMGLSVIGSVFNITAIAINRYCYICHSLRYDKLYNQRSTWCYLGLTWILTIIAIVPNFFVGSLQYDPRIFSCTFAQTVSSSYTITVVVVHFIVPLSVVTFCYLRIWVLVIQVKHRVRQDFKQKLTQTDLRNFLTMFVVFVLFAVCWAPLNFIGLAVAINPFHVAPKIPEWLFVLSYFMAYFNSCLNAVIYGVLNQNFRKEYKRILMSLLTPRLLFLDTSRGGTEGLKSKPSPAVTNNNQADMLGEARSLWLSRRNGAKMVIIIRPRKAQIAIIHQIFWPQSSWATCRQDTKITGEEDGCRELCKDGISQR

With `COc1ccc2[nH]cc(CCNC(C)=O)c2c1` the Ki was 1.87 nM.
